# Key:
# EGFR = assay: Immunoblot of whole cell lysates for EGFR; format: cell-based, human; settings: for EGFR expression, dose-dependent: 24 hr
# Method: (§1) MCF7 cells were obtained and cultured (in the presence of compound III-B for 48 hr) in a similar manner as in Example 6. The cultured MCF7 cells were harvested, washed, and lysed using a lysis buffer (50 mM Tris-HCl (pH 7.4), 150 mM NaCl, 1% NP-40, 5 mM EDTA, 5 mM NaF, 1 mM Na3VO4, 1 mM PMSF, 5 μg/ml leupeptine, and 5 μg/ml aprotinin). […] The antibodies used were polyclonal anti-acetylated lysine (Ac—K; Cell Signaling Technology, Danvers, Mass.) and antibodies directed against EGFR, HER2, ER, and acetylated-α-tubulin (Ac-α-tubulin). […] In contrast, the expression of Ac—K in MCF7 cells was not affected by compound III-B (FIG. 12B).
# (§2) MCF7 and T47D cells were obtained and cultured (in the presence of compound III-D (0, 0.5, 1, or 2 μM), for 24 hr), using methods similar to the ones described in Example 6. The whole cell lysates were immunoblotted with antibodies against EGFR, HER2, ER, and α-tubulin using methods similar to the ones described in Example 12. […] In contrast, the expression of α-tubulin in MCF7 or T47D cells was not affected by compound III-D (FIG. 13B).
# (§3) MCF7 cells were obtained and cultured (in the presence of 2 μM of compound III-D, for 0, 12, 24, or 48 hr) using methods similar to the ones described in Example 6. The whole cell lysates were immunoblotted with antibodies against EGFR, HER2, ER, and α-tubulin using methods similar to the ones described in Example 12. […] In contrast, the expression of α-tubulin in MCF7 cells was not affected by compound III-D.
# ER = assay: Immunoblot of whole cell lysates for ER; format: cell-based, human; settings: for ER expression, dose-dependent: 24 hr
# Method: as §1, §2, §3
# HER2 = assay: Immunoblot of whole cell lysates for HER2; format: cell-based, human; settings: for HER2 expression, dose-dependent: 24 hr
# Method: as §1, §2, §3
# [1] = system: MCF7 human breast cancer cell lines; assay: MCF7 cell growth, MTT dye absorbance; format: cell-based; settings: for MCF7 cell growth: 72 hr
# Method: (§4) MCF7 human breast cancer cell lines were obtained from the American Type Culture Collection (Manassas, Va.). The cells were cultured in DMEM (Mediatech Inc., Manassas, Va.) or RPMI1640 (Mediatech Inc., Manassas, Va.) supplemented with FBS (10%), penicillin, streptomycin, and glutamine (Invitrogen, Auckland, New Zealand). […] The MCF7 cells were harvested using 0.05% trypsin-EDTA (Invitrogen) and distributed into 96-well plates (10,000-20,000 cells/well) 24 hr prior to the treatment. All experiments were performed three times in quadruplicate.
# [2] = system: T47D human breast cancer cells; assay: T47D cell growth, MTT dye absorbance; format: cell-based; settings: for T47D cell growth: 72 hr
# Method: as §4
# T47D human breast cancer cells were obtained, cultured (in the presence of compounds III-A, III-B, III-C, or III-E), and assayed in a similar manner as in Example 6.
# [3] = system: LnCaP human prostate cancer cells; assay: LnCaP cell growth, MTT dye absorbance; format: cell-based; settings: 72 hr
# Method: [The procedure below names another cell line; the source lists this cell line under the same test.] as §4
# acetylated lysine (Ac—K) = assay: Immunoblot for acetylated lysine (histone acetylation); format: cell-based, human; settings: MCF7 cells, 48 hr
# Method: as §1
# α-tubulin = assay: Immunoblot of whole cell lysates for α-tubulin; format: cell-based, human
# Method: as §1, §2, §3
# [4] = system: T cells cocultured with MDSCs from peripheral blood of MM patients; assay: MDSC-mediated T cell suppression, 3H-Thymidin incorporation assay; format: cell-based, human; settings: 1 μM, 5 days coculture, T:MDSCs 4:1, antiCD3/CD28 Abs and rhIL-2
# Method: CD11b^+CD14^−HLA-DR^−/lowCD33^+ MDSCs and CD3T cells were isolated from peripheral blood of MM patients. The cells were stimulated with antiCD3/CD28 Abs and 2 ng/ml rhIL-2 and cocultured (ratio of T:MDSCs was 4:1) for 5 days in the absence or presence (1 μM) of compound III-D. The cell proliferation was measured by ^3H-Thymidin incorporation assay.
# pY694 STAT5 = assay: Intracellular flow cytometry of STAT5 phosphorylation in MDSCs; format: cell-based, human; settings: 1 μM overnight, MM-PBMC, PHA 2 ng/ml 10 min
# Method: (§5) STAT-mediated signaling plays an important role in MDSC activation and function.
# (§6) MM-PBMCs were cultured overnight with (1 μM) or without compound III-D. Cells were induced with phytohemagglutinin (PHA, 2 ng/ml) for 10 min. Intracellular expression of pY701 STAT1, pY705 STAT3, pY694 STAT5, STAT1, STAT3, and STAT5 in MDSCs (CD11b^+CD14^−HLA-DR^−/lowCD33^+CD15^+), was determined by flow cytometry analysis.
# pY705 STAT3 = assay: Intracellular flow cytometry of STAT3 phosphorylation in MDSCs; format: cell-based, human; settings: 1 μM overnight, MM-PBMC, PHA 2 ng/ml 10 min
# Method: as §5, §6
# MCF7 cells = assay: Bortezomib and III-D combination cytotoxicity in MCF7 cells, MTT, isobologram analysis; format: cell-based, human; settings: 48 hr; for Combination indicia (CI): MCF7 cells
# Method: as §4
# MCF7 cells were obtained, cultured (in the presence of bortezomib (0, 10, 20, or 40 nM) and III-D (0, 0.3, 1, or 3 μM), for 48 hr), and assayed using methods similar to the ones described in Example 6. The statistical significance of the differences observed between the control cultures and the cultures treated with bortezomib and compound III-D was determined using the Wilcoxon signed-ranks test. The minimal level of significance was p<0.05. The interaction between compound III-D and bortezomib was analyzed by isobologram analysis using the CalcuSyn software program (Biosoft, Ferguson, Mo.) to determine whether the combination was additive or synergistic. A combination index (CI)<1.0 indicates a synergistic cell growth inhibitory effect.
# pY701 STAT1 = assay: Intracellular flow cytometry of STAT1 phosphorylation in MDSCs; format: cell-based, human; settings: 1 μM overnight, MM-PBMC, PHA 2 ng/ml 10 min
# Method: as §5, §6
# [5] = system: CD11b+CD14−HLA-DR−/lowCD33+CD15+ MDSCs in MM-PBMC; assay: MDSC number and maturation in MM-PBMC, flow cytometry; format: cell-based, human; settings: 1 μM, cultured overnight; for number of CD11b+CD14−HLA-DR−/lowCD33+CD15+ MDSCs in MM-PBMC: vs untreated MM-PBMC
# Method: In order to determine whether myeloid derived suppressor cells (MDSCs) are present in subjects with multiple myeloma (MM), fresh or cultured peripheral blood mononuclear cells (PBMCs) and bone marrow mononuclear cells (BMMCs) from human subjects with MM have been analyzed using standard cell-surface multicolor flow cytometry staining methods (see, e.g., Herzenberg et al., Clin. Chem. (2002) 48:1819-27; and Perez et al., Nat. Biotechnol. (2002) 20:155-62).
# MM-PBMCs were cultured overnight with (1 μM) or without compound III-D. MDSCs (CD11b^+CD14^−HLA-DR^−/lowCD33^+CD15^+) were determined by flow cytometry analysis. Gates 110 and 130 indicate the MDSC population. Compound III-D induces maturation of MDSCs (CD11b^+CD14^−HLA-DR^−/lowCD33^+CD15^+) into CD14^+ and/or CD14^−[…] (FIG. 3G) in MM peripheral blood compared to untreated MM-PBMC (FIG. 3C). MM-PBMCs were cultured overnight with (1 μM) or without compound III-D. CD14 and/or HLA-DR expressing MDSCs (CD11b^+CD14^−HLA-DR^−/lowCD33^+CD15^+) were determined by flow cytometry analysis. Gates 100 and 120 indicate CD14^+ mature MDSC population. Gating strategy of MDSCs has been indicated as CD11b^+ cells (FIGS. 3A-3B and 3E-3F), CD11b^+CD14^−HLA-DR^−/lowCD14^− cells (FIGS. 3C and 3G) and MDSCs with a phenotype of CD11b^+/HLA-DR^−/lowCD14^−/CD33^+CD15^+ cells (FIGS. 3D and 3H).
# [6] = MCF7 cells, 2 μM, 0, 12, 24, or 48 hr
smiles,measurement,setting,value
CC(=O)N/N=C/c1ccc(N(c2ccccc2)c2ccccc2)cc1 [Compound III-B],EGFR expression,"EGFR; MCF7 cells, 48 hr",down-regulates
same,ER expression,"ER; MCF7 cells, 48 hr",down-regulates
same,HER2 expression,"HER2; MCF7 cells, 48 hr",down-regulates
same,MCF7 cell growth,[1],inhibit
same,T47D cell growth,[2],inhibit
same,LnCaP cell growth,[3],inhibit
same,expression of Ac—K,acetylated lysine (Ac—K),not affected
O=C(N/N=C/c1ccc(N(c2ccccc2)c2ccccc2)cc1)c1ccccc1 [Compound III-C],MCF7 cell growth,[1],inhibit
same,T47D cell growth,[2],inhibit
same,LnCaP cell growth,[3],inhibit
CN1CCC(C(=O)N/N=C/c2ccc(N(c3ccccc3)c3ccccc3)cc2)CC1 [Compound III-D],expression of α-tubulin,"α-tubulin; MCF7 cells, 0, 0.5, 1, or 2 μM, 24 hr",not affected
same,expression of α-tubulin,α-tubulin; [6],not affected
same,expression of α-tubulin,"α-tubulin; T47D cells, 0, 0.5, 1, or 2 μM, 24 hr",not affected
same,"EGFR expression, dose-dependent","EGFR; MCF7 cells, 0, 0.5, 1, or 2 μM",down-regulates
same,"EGFR expression, time-dependent",EGFR; [6],down-regulates
same,"EGFR expression, dose-dependent","EGFR; T47D cells, 0, 0.5, 1, or 2 μM",down-regulates
same,MDSC-mediated T cell suppression (T cell proliferation),[4],Reversed
same,"ER expression, dose-dependent","ER; MCF7 cells, 0, 0.5, 1, or 2 μM",down-regulates
same,"ER expression, time-dependent",ER; [6],down-regulates
same,"ER expression, dose-dependent","ER; T47D cells, 0, 0.5, 1, or 2 μM",down-regulates
same,phosphorylation of STAT5 (pY694) in MDSCs,pY694 STAT5,significantly reduced
same,phosphorylation of STAT3 (pY705) in MDSCs,pY705 STAT3,significantly reduced
same,Combination indicia (CI),MCF7 cells; III-D 0.3 μM + bortezomib 10 nM,1.58
same,Combination indicia (CI),MCF7 cells; III-D 0.3 μM + bortezomib 20 nM,1.29
same,Combination indicia (CI),MCF7 cells; III-D 0.3 μM + bortezomib 40 nM,0.83
same,Combination indicia (CI),MCF7 cells; III-D 1 μM + bortezomib 10 nM,0.66
same,Combination indicia (CI),MCF7 cells; III-D 1 μM + bortezomib 20 nM,0.53
same,Combination indicia (CI),MCF7 cells; III-D 1 μM + bortezomib 40 nM,0.53
same,Combination indicia (CI),MCF7 cells; III-D 3 μM + bortezomib 10 nM,1.22
same,Combination indicia (CI),MCF7 cells; III-D 3 μM + bortezomib 20 nM,1.03
same,Combination indicia (CI),MCF7 cells; III-D 3 μM + bortezomib 40 nM,0.98
same,enhancement of bortezomib-induced MCF7 cytotoxicity (interaction),"MCF7 cells; combination with bortezomib, at least at certain concentrations, CI<1 = synergistic",synergistically
same,phosphorylation of STAT1 (pY701) in MDSCs,pY701 STAT1,significantly reduced
same,"HER2 expression, dose-dependent","HER2; MCF7 cells, 0, 0.5, 1, or 2 μM",down-regulates
same,"HER2 expression, time-dependent",HER2; [6],down-regulates
same,"HER2 expression, dose-dependent","HER2; T47D cells, 0, 0.5, 1, or 2 μM",down-regulates
same,MCF7 cell growth,[1],inhibit
same,potency in inhibiting MCF7 cells compared with tamoxifen,[1]; at least at 3-10 μM of compound and tamoxifen,more potent than tamoxifen
same,maturation of MDSCs into CD14+ monocytes and/or CD14+HLA-DR+ antigen presenting cells,[5]; MM-PBMC,induced maturation
same,number of CD11b+CD14−HLA-DR−/lowCD33+CD15+ MDSCs in MM-PBMC,[5],significant decrease
same,potency in inhibiting T47D cells compared with tamoxifen,[2],more potent than tamoxifen
O/N=C/c1ccc(N(c2ccccc2)c2ccccc2)cc1 [Compound III-E],MCF7 cell growth,[1],inhibit
same,T47D cell growth,[2],inhibit
same,LnCaP cell growth,[3],inhibit
O=C1CN(/N=C/c2ccc(N(c3ccccc3)c3ccccc3)cc2)C(=O)N1 [Compound III-F],MDSC-mediated T cell suppression (T cell proliferation),[4],reverses
same,phosphorylation of STAT5 (pY694) in MDSCs,pY694 STAT5,decreases
same,phosphorylation of STAT3 (pY705) in MDSCs,pY705 STAT3,decreases
same,phosphorylation of STAT1 (pY701) in MDSCs,pY701 STAT1,decreases
same,MCF7 cell growth,[1],inhibit
same,number of CD11b+CD14−HLA-DR−/lowCD33+CD15+ MDSCs in MM-PBMC,[5],decreased
O=C(NN=Cc1ccccc1)c1ccccc1 [Compound IV-B],MCF7 cell growth,[1],do not
CC(=O)NN=Cc1ccccc1 [Compound IV-C],MCF7 cell growth,[1],do not
CC(=O)NN=Cc1ccc(N(C)C)cc1 [Compound IV-D],MCF7 cell growth,[1],does not
O=Cc1ccc(N(c2ccccc2)c2ccccc2)cc1 [III-A],MCF7 cell growth,[1],inhibit
same,T47D cell growth,[2],inhibit
same,LnCaP cell growth,[3],inhibit
"CC(C)C[C@H](NC(=O)[C@H](Cc1ccccc1)NC(=O)c1cnccn1)B(O)O [bortezomib, reference compound]",response of MCF7 cells to bortezomib as single agent,"MCF7 cells; bortezomib 0, 10, 20, or 40 nM",resistant
